Molecules are shown by their SMILES.

One data set relates to domestic flies. Put plainly: insecticidal activity, full-scale (large-scale) test in premises. Format: in vivo. The note with it: 2% solution, 2-3 dishes per 20 m²; 72 hours. The protocol: The full-scale tests for activity of the insecticidal composition of the invention to domestic flies in habitable and industrial premises were carried out as follows. The Petri dishes containing a 2% solution of the insecticidal composition of the invention were located according 2-3-dishes per 20 m². The composition activity was evaluated by a direct estimation of killed insects in 72 hours or by using an adhesive tape to count the number of flies on its surface prior to and after conducting the test.

The conditions of data set [1]: mice and rats; cited from earlier work.

`COP(=O)(OC)C(O)C(Cl)(Cl)Cl` (centres unmarked) [0,0-dimethyl/1-hydroxy-2,2,2,-trichloroethyl/-phosphonate, reference compound]: in the data set with domestic flies, the “Death of flies, % Tests in large-scale” value turned out to be 88.0%. The LD₅₀ in data set [1] is 225 to 1200 mg/kg.
